Earlier results as cited in patent publication US20090263481A1, “LEVETIRACETAM FORMULATIONS” (priority 2008, published 2009).
Like-named read-outs stand apart in the source and are kept apart here.

Experiments:
[1] = not given; remark: listed apart in the source
[2] = tested on: plasma proteins

solubility (descriptive) (acetonitrile): sparingly soluble
solubility (descriptive) (chloroform): freely soluble
solubility (descriptive) (ethanol): soluble
solubility (descriptive) (methanol): freely soluble
solubility (descriptive) (n-hexane): practically insoluble
aqueous solubility (water): 104 g/100 mL
solubility (descriptive) (water): very soluble
dose range over which pharmacokinetics are linear ([1]; in vivo): 500 to 5000 mg
absorption after oral administration (descriptive) ([1]; oral administration): rapidly and almost completely absorbed
time of peak plasma concentrations ([1]; oral administration to fasted subjects): one
decrease of Cmax by food ([1]; oral, with food): 20%
time to steady state ([1]; twice-daily dosing): 2 days
bound to plasma proteins [2]: less than 10%
SMILES: CC[C@@H](C(N)=O)N1CCCC1=O [Levetiracetam, (−)-(S)-α-ethyl-2-oxo-1-pyrrolidine acetamide]
